One test addresses T1, p38alpha (Homo sapiens, UniProt Q16539).
T1 construct: purchased Invitrogen PV3304
The test is described as follows: P38Alpha enzyme inhibition assay (Alphascreen kinase activity assay). The format is biochemical. Conditions: 100 pM p38alpha, 250 μM ATP, 2 hours pre-incubation at 25° C., read-out: p38α inhibition (IC50 values). The gist of the method: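 p38α (100 pM) with ATF-2 fusion protein substrate (0.3 µg/ml) in pH 7.5 HEPES/MgCl2 buffer, 1% DMSO, preincubated 2 h at 25°C with compound. Reaction started with 250 µM ATP, ran 1 h at 25°C, then stopped with EDTA. Phospho-ATF2 antibody detected by AlphaScreen luminescence; IC50 from concentration-response curves.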
In general terms: Bead proximity is the source of the signal in Alpha formats.

The test system of test [1] is LPS-stimulated TNFα release from PBMCs. The test is described as follows: LPS-stimulated PBMC TNFα release assay. The format is cell-based. Conditions: inhibition of TNFα release, human PBMCs, LPS 10 ng/ml, 18 h, ELISA, read-out: p38α inhibition (IC50 values). Here is the method: LPS-Stimulated PBMC TNFα Release Assay.
Peripheral Blood Mononuclear Cells (PBMCs) were isolated from healthy human volunteer blood using a standard density gradient centrifugation technique. Citrated blood was placed onto Histopaque™ and centrifuged. The PBMCs were removed from the density gradient interface and washed in phosphate buffered saline (PBS). The PBMCs were suspended in RPMI 1640 medium (without serum), dispensed into a 96-well plate and incubated at 37° C. for 3 h in a humidified incubator. After incubation, the medium was replaced (with medium containing 1% foetal bovine serum) and the plate incubated at 37° C., for 1 h, in the presence of test compound or the appropriate vehicle. LPS (10 ng/ml), or an appropriate vehicle control, was then added to the cells and the plate returned to the incubator for 18 h. Cell-free supernatants were removed and assayed for TNFα levels using an ELISA kit from R&D Systems.
A dose response curve to each test compound was performed and the effect of compound in each experiment was expressed as a percentage inhibition of the control TNFα release. Dose response curves were plotted and compound potency (IC50) was determined. Compounds were tested in at least three separate experiments.

T1 sequence (Q16539 whole entry): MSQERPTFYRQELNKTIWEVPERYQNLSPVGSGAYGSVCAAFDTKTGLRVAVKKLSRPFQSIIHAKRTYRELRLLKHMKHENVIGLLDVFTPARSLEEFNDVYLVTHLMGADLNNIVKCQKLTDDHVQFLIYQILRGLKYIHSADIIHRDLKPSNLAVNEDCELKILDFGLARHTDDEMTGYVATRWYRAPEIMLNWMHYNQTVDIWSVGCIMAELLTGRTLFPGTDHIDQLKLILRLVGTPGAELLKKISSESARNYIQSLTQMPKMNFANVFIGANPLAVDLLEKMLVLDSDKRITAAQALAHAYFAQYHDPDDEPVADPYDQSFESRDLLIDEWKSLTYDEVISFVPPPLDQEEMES

Consider `CCOC(=O)c1cccc(-n2nc(C(C)(C)C)cc2NC(=O)N[C@H]2CC[C@@H](Oc3ccc4nnc([C@@H]5CCCN5C)n4c3)c3ccccc32)c1` [Example 30, 3-[3-tert-Butyl-5-(3-{(1S,4R)-4-[3-((S)-1-methyl-pyrrolidin-2-yl)-[1,2,4]triazolo[4,3-a]pyridin-6-yloxy]-1,2,3,4-tetrahydro-naphthalen-1-yl}-ureido)-pyrazol-1-yl]-benzoic acid ethyl ester], for which the IC50 (on p38alpha; in test [1]) was below 10 nM throughout.
Turning to `CN1CCC[C@H]1c1nnc2ccc(O[C@@H]3CC[C@H](NC(=O)Nc4cc(C(C)(C)C)nn4-c4cccc(CO)c4)c4ccccc43)cn12` [Example 31, 1-[5-tert-Butyl-2-(3-hydroxymethyl-phenyl)-2H-pyrazol-3-yl]-3-{(1S,4R)-4-[3-((S)-1-methyl-pyrrolidin-2-yl)-[1,2,4]triazolo[4,3-a]pyridin-6-yloxy]-1,2,3,4-tetrahydro-naphthalen-1-yl}-urea], the IC50 (at p38alpha; in test [1]) was below 10 nM throughout.
On to `CN1CCC[C@H]1c1nnc2ccc(O[C@@H]3CC[C@H](NC(=O)Nc4cc(C(C)(C)C)nn4-c4ccc(CO)cc4)c4ccccc43)cn12` [Example 33, 1-[5-tert-Butyl-2-(4-hydroxymethyl-phenyl)-2H-pyrazol-3-yl]-3-{(1S,4R)-4-[3-((S)-1-methyl-pyrrolidin-2-yl)-[1,2,4]triazolo[4,3-a]pyridin-6-yloxy]-1,2,3,4-tetrahydro-naphthalen-1-yl}urea], for which the IC50 (on p38alpha; in test [1]) was below 10 nM in each case.
As for `CC(C)(C)c1cc(NC(=O)N[C@H]2CC[C@@H](Oc3ccc4nnc(N5CCCCC5)n4c3)c3ccccc32)n(-c2ccc(CO)cc2)n1` [Example 34, 1-[5-tert-Butyl-2-(4-hydroxymethyl-phenyl)-2H-pyrazol-3-yl]-3-[(1S,4R)-4-(3-piperidin-1-yl-[1,2,4]triazolo[4,3-a]pyridin-6-yloxy)-1,2,3,4-tetrahydro-naphthalen-1-yl]-urea], the half-maximal inhibitory concentration (IC50) (at p38alpha; in test [1]) was below 10 nM in each case.
As to `CN1CCC[C@H]1c1nnc2ccc(O[C@@H]3CC[C@H](NC(=O)Nc4cc(C(C)(C)C)nn4-c4cccc(SCCO)c4)c4ccccc43)cn12` [Example 35, 1-{5-tert-Butyl-2-[3-(2-hydroxy-ethylsulfanyl)-phenyl]-2H-pyrazol-3-yl}-3-{(1S,4R)-4-[3-((S)-1-methyl-pyrrolidin-2-yl)-[1,2,4]triazolo[4,3-a]pyridin-6-yloxy]-1,2,3,4-tetrahydro-naphthalen-1-yl}-urea], the IC50 (on p38alpha; in test [1]) was below 10 nM in each case.
On to `Cc1ccc(-n2nc(C(C)(C)CO)cc2NC(=O)N[C@H]2CC[C@@H](Oc3ccc4nnc(N5CCCCC5)n4c3)c3ccccc32)cc1` [Example 36, 1-[5-(2-Hydroxy-1,1-dimethyl-ethyl)-2-p-tolyl-2H-pyrazol-3-yl]-3-[(1S,4R)-4-(3-piperidin-1-yl-[1,2,4]triazolo[4,3-a]pyridin-6-yloxy)-1,2,3,4-tetrahydro-naphthalen-1-yl]-urea], for which the IC50 (at p38alpha; in test [1]) was below 10 nM throughout.
Turning to `CN1CCC[C@H]1c1nnc2ccc(O[C@H]3C[C@H](NC(=O)Nc4cc(C(C)(C)C)nn4-c4ccc(CO)cc4)c4ccccc43)cn12` [Example 37, 1-[5-tert-Butyl-2-(4-hydroxymethyl-phenyl)-2H-pyrazol-3-yl]-3-{(1S,3S)-3-[3-((S)-1-methyl-pyrrolidin-2-yl)-[1,2,4]triazolo[4,3-a]pyridin-6-yloxy]-indan-1-yl}-urea], the IC50 (at p38alpha; in test [1]) was below 10 nM throughout.
Regarding `Cc1ccc(-n2nc(C(C)(C)C)cc2NC(=O)N[C@H]2CC[C@@H](Oc3ccc4nnc(N5CC[C@@H](O)C5)n4c3)c3ccccc32)cc1` [Example 38, 1-(5-tert-Butyl-2-p-tolyl-2H-pyrazol-3-yl)-3-{(1S,4R)-4-[3-((R)-3-hydroxy-pyrrolidin-1-yl)-[1,2,4]triazolo[4,3-a]pyridin-6-yloxy]-1,2,3,4-tetrahydro-naphthalen-1-yl}-urea], the IC50 (on p38alpha; in test [1]) was below 10 nM in each case.
Take `CC(C)(C)c1cc(NC(=O)N[C@H]2CC[C@@H](Oc3ccc4nnc(N5CCCCC5)n4c3)c3ccccc32)n(-c2cccc(OCCO)c2)n1` [Example 39, 1-{5-tert-Butyl-2-[3-(2-hydroxy-ethoxy)-phenyl]-2H-pyrazol-3-yl}-3-[(1S,4R)-4-(3-piperidin-1-yl-[1,2,4]triazolo[4,3-a]pyridin-6-yloxy)-1,2,3,4-tetrahydro-naphthalen-1-yl]-urea]: the IC50 (on p38alpha; in test [1]) was below 10 nM throughout.
`CN(C)CCOc1cccc(-n2nc(C(C)(C)C)cc2NC(=O)N[C@H]2CC[C@@H](Oc3ccc4nnc(N5CCCCC5)n4c3)c3ccccc32)c1` [Example 40, 1-{5-tert-Butyl-2-[3-(2-dimethylamino-ethoxy)-phenyl]-2H-pyrazol-3-yl}-3-[(1S,4R)-4-(3-piperidin-1-yl-[1,2,4]triazolo[4,3-a]pyridin-6-yloxy)-1,2,3,4-tetrahydro-naphthalen-1-yl]-urea]: the IC50 (on p38alpha; in test [1]) was below 10 nM in each case.
Turning to `CN1CCN(Cc2cccc(-n3nc(C(C)(C)C)cc3NC(=O)N[C@H]3CC[C@@H](Oc4ccc5nnc(N6CCCCC6)n5c4)c4ccccc43)c2)CC1` [Example 41, 1-{5-tert-Butyl-2-[3-(4-methyl-piperazin-1-ylmethyl)-phenyl]-2H-pyrazol-3-yl}-3-[(1S,4R)-4-(3-piperidin-1-yl-[1,2,4]triazolo[4,3-a]pyridin-6-yloxy)-1,2,3,4-tetrahydro-naphthalen-1-yl]-urea], the IC50 (on p38alpha; in test [1]) was below 10 nM in each case.
For `CN1CCC[C@H]1c1nnc2ccc(O[C@@H]3CC[C@H](NC(=O)Nc4cc(C(C)(C)C)nn4-c4cccc(OCCO)c4)c4ccccc43)cn12` [Example 42, 1-{5-tert-Butyl-2-[3-(2-hydroxy-ethoxy)-phenyl]-2H-pyrazol-3-yl}-3-{(1S,4R)-4-[3-((S)-1-methyl-pyrrolidin-2-yl)-[1,2,4]triazolo[4,3-a]pyridin-6-yloxy]-1,2,3,4-tetrahydro-naphthalen-1-yl}-urea], the IC50 (at p38alpha; in test [1]) was below 10 nM each time.
`Cc1ccc(-n2nc(C(C)(C)C)cc2NC(=O)N[C@H]2CC[C@@H](Oc3ccc4nnc(N(C)CCN(C)C)n4c3)c3ccccc32)cc1` [Example 43, 1-(5-tert-Butyl-2-p-tolyl-2H-pyrazol-3-yl)-3-((1S,4R)-4-{3-[(2-dimethylamino-ethyl)-methyl-amino]-[1,2,4]triazolo[4,3-a]pyridin-6-yloxy}-1,2,3,4-tetrahydro-naphthalen-1-yl)-urea]: the IC50 (at p38alpha; in test [1]) was below 10 nM throughout.
`CC(C)(C)c1cc(NC(=O)N[C@H]2CC[C@@H](Oc3ccc4nnc(N5CCCCC5)n4c3)c3ccccc32)n(-c2cccc(CN3CCCCC3)c2)n1` [Example 44, 1-[5-tert-Butyl-2-(3-piperidin-1-ylmethyl-phenyl)-2H-pyrazol-3-yl]-3-[(1S,4R)-4-(3-piperidin-1-yl-[1,2,4]triazolo[4,3-a]pyridin-6-yloxy)-1,2,3,4-tetrahydro-naphthalen-1-yl]-urea]: the IC50 (at p38alpha; in test [1]) was below 10 nM each time.
Regarding `Cc1ccc(-n2nc(C(C)(C)C)cc2NC(=O)N[C@H]2CC[C@@H](Oc3ccc4nnc([C@]5(C)CCCN5C)n4c3)c3ccccc32)cc1` [Example 47, 1-(5-tert-Butyl-2-p-tolyl-2H-pyrazol-3-yl)-3-{(1S,4R)-4-[3-((S)-1,2-dimethyl-pyrrolidin-2-yl)-[1,2,4]triazolo[4,3-a]pyridin-6-yloxy]-1,2,3,4-tetrahydro-naphthalen-1-yl}-urea], the IC50 (at p38alpha; in test [1]) was below 10 nM each time.
On to `CC(C)(C)c1cc(NC(=O)N[C@H]2CC[C@@H](Oc3ccc4nnc(N5CCCCC5)n4c3)c3ccccc32)n(-c2cccc(COCCO)c2)n1` [Example 48, 1-{5-tert-Butyl-2-[3-(2-hydroxy-ethoxymethyl)-phenyl]-2H-pyrazol-3-yl}-3-[(1S,4R)-4-(3-piperidin-1-yl-[1,2,4]triazolo[4,3-a]pyridin-6-yloxy)-1,2,3,4-tetrahydro-naphthalen-1-yl]-urea], for which the IC50 (on p38alpha; in test [1]) was below 10 nM throughout.
As for `Cc1ccc(-n2nc(C(C)(C)C)cc2NC(=O)N[C@H]2CC[C@@H](Oc3ccc4nnc(N5CCCOCC5)n4c3)c3ccccc32)cc1` [Example 49, 1-(5-tert-Butyl-2-p-tolyl-2H-pyrazol-3-yl)-3-[(1S,4R)-4-(3-[1,4]oxazepan-4-yl-[1,2,4]triazolo[4,3-a]pyridin-6-yloxy)-1,2,3,4-tetrahydro-naphthalen-1-yl]-urea], the IC50 (at p38alpha; in test [1]) was below 10 nM in each case.

Broadly, the IC50 is the point on the concentration scale where inhibition reaches its midpoint.

The values above are taken from patent US9315503B2, “Kinase inhibitors” (CHIESI FARMACEUTICI S.p.A., priority 2011, dated 2016).
